We go through two molecules from article PMC12615753, “Glutathione as a taste modulator: molecular mechanisms of interaction with umami and sweet taste receptors” (Food Chemistry: Molecular Sciences, 2025).

For this experiment, the target named is T1, hTAS1R1 H71A/rTAS1R3 (UniProt Q7RTX1+Q923K1, H71A).
T1 construct: The cDNA coding region of rTAS1R3 was synthesized with optimized-codon usage for human expression; expressed in transfected cells; host or cells: HEK293T/17
T1 sequence (Q7RTX1 21-841 H71A): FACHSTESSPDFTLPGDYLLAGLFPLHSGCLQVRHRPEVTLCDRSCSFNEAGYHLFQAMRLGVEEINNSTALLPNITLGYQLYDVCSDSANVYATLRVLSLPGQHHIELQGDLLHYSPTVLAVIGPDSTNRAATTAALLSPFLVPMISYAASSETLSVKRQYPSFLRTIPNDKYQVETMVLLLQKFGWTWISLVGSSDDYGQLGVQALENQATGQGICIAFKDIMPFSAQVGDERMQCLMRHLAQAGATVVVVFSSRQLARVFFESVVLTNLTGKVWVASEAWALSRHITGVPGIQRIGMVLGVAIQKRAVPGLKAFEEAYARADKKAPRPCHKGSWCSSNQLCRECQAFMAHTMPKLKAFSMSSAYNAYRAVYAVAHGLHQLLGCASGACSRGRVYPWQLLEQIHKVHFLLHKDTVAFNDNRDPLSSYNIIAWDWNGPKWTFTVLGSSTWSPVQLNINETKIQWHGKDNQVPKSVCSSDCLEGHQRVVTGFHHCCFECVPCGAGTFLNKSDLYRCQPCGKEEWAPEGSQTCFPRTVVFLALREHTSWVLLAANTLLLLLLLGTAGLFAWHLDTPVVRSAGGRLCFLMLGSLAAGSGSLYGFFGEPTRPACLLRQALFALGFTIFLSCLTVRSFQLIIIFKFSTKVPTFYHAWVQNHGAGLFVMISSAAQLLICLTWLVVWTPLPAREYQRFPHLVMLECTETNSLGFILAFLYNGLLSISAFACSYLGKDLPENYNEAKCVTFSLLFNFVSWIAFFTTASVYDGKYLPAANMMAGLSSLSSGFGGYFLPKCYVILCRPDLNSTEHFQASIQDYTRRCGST
T1 sequence (Q923K1 21-858): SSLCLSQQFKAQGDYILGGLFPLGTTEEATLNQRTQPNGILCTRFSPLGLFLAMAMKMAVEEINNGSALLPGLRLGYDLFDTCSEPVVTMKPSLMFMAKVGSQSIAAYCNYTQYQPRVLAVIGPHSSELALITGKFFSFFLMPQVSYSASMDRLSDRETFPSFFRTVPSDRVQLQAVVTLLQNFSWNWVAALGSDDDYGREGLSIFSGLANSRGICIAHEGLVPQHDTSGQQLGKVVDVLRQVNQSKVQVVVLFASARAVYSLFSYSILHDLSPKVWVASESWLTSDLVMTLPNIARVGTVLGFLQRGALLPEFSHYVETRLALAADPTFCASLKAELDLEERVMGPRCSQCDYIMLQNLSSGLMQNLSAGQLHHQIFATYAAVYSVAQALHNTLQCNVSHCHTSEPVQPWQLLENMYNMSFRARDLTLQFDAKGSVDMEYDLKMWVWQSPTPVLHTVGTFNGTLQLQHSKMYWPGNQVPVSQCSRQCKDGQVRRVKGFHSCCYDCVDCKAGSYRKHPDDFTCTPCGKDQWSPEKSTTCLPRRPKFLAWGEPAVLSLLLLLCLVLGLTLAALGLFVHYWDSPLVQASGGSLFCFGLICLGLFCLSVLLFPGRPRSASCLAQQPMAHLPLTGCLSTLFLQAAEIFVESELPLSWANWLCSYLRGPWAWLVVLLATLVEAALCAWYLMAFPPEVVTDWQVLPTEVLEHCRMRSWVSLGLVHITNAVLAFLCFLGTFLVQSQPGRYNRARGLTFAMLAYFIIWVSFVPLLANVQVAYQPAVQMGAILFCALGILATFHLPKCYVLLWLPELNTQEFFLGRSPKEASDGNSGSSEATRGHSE
Put plainly: Calcium assay, hTAS1R1 mutant co-expressed with rTAS1R3. The format is cell-based, human, rat.

Regarding `N[C@@H](CCC(=O)N[C@@H](CS)C(=O)NCC(=O)O)C(=O)O` [GSH, γ-L-glutamyl-L-cysteinyl-glycine], the concentration for a half-maximal effect (EC50) – broadly, the concentration that produces a half-maximal response – worked out at 2.03 ± 0.416 mM. Besides, the “effect of the added compound (1 mM) on the response to L-Glu” value (H71A) is on record as “did not affect”. Besides, for the setting “H71A, GSH”, the “Max ∆F/F0” value is listed as 0.44 ± 0.03 and the “R1 = mutant EC50/WT EC50” value stood at 0.8.

As for `CCCC(CCC)NC(=O)c1ccc2c(c1)OCO2` [S807, N-(heptan-4-yl)benzo[d][1,3]dioxole-5-carboxamide, reference compound], the “response to the agonist alone, vs WT” value (H71A) is on record as “strongly affected”.
